Experimental data: patent US12011444B2, “N-substituted indole derivatives as PGE2 receptor modulators” (Idorsia Pharmaceuticals Ltd, priority 2015, dated 2024)

Key:
[1] = molecular target: PTGER2 (EP2) (Homo sapiens (Human), UniProt P43116); assay: hEP2 b-arrestin assay (PathHunter HEK 293 PTGER2 b-arrestin cells); assay type: cell-based; conditions: antagonistic activity on hEP2; mean where measured multiple times
In short: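 Readout is β-galactosidase complementation luminescence, expressed as percent of DMSO control (duplicates). PathHunter HEK293 EP2/β-arrestin 2 cells, grown 24 h, received compound for 15 min at 37 °C before a 120 min challenge with PGE2 at 5 μM final, followed by 1 h detection at room temperature.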

[2] = molecular target: PTRGER4 (EP4) (Homo sapiens (Human), UniProt P35408); assay: hEP4 b-arrestin assay (PathHunter HEK 293 PTGER4 b-arrestin cells); assay type: cell-based; conditions: antagonistic activity on hEP4; mean where measured multiple times
In short: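 Antagonist mode: compound is given 15 min at 37 °C, then 20 nM (final) PGE2 for 120 min, in HEK293 cells stably expressing EP4 fused to ProLink and β-arrestin 2 fused to EA. Recruitment read as β-gal luminescence after 1 h reagent at room temperature, as percent of DMSO control.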

Chain of PTRGER4 (EP4) (P35408 whole entry, looked up, the tested form may be a part): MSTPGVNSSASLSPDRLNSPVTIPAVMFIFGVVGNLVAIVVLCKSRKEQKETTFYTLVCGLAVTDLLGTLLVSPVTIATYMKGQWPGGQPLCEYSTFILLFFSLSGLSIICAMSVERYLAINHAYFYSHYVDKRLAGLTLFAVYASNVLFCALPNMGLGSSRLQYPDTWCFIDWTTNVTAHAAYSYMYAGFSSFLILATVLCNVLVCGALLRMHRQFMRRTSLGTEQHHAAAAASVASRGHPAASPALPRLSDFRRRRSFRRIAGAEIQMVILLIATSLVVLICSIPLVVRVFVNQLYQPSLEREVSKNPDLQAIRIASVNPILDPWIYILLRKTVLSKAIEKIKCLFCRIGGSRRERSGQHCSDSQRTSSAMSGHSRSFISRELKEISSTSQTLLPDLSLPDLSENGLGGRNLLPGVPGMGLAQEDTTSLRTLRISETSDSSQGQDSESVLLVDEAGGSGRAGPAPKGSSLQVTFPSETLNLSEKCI
Chain of PTGER2 (EP2) (P43116 whole entry): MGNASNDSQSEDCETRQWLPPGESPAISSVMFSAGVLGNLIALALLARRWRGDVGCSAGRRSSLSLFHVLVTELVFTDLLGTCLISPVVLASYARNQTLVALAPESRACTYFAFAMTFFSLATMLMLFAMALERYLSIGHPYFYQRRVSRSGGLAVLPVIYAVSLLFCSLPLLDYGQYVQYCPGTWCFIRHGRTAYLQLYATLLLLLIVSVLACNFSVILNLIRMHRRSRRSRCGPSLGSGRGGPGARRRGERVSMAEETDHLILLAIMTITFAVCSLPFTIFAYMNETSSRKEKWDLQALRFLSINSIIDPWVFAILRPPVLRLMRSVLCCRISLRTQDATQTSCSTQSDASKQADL

Structure (SMILES) | IC50 [1] | IC50 [2]
CCOc1cc(-c2cc(NCCn3c(C)cc4c(F)ccc(F)c43)ncn2)ccc1C(=O)O [compound 154, 4-{6-[2-(4,7-Difluoro-2-methyl-indol-1-yl)-ethylamino]-pyrimidin-4-yl}-2-ethoxy-benzoic acid] | 1 nM | 628 nM
COc1ccc(Cl)c2c1cc(C)n2CCNc1cc(-c2cc(C)c(C(=O)O)c(Cl)c2)ncn1 [compound 155] | 55 nM | 251 nM
COc1ccc(F)c2c1cc(C)n2CCNc1cc(-c2cc(C)c(C(=O)O)c(Cl)c2)ncn1 [compound 156] | 78 nM | 93 nM
CCOc1cc(-c2cc(NCCn3c(C)cc4c(C)ccc(Cl)c43)ncn2)ccc1C(=O)O [compound 157, 4-{6-[2-(7-Chloro-2,4-dimethyl-indol-1-yl)-ethylamino]-pyrimidin-4-yl}-2-ethoxy-benzoic acid] | 27 nM | 590 nM
CCOc1cc(-c2cc(NCCn3c(C)cc4c(OC)ccc(F)c43)ncn2)ccc1CO [compound 159, (2-Ethoxy-4-{6-[2-(7-fluoro-4-methoxy-2-methyl-indol-1-yl)-ethylamino]-pyrimidin-4-yl}-phenyl)-methanol] | 4 nM | 75 nM
CCc1cc(-c2cc(NCCn3c(C)cc4c(OC)cccc43)ncn2)cc(Cl)c1C(=O)O [compound 160, 2-Chloro-6-ethyl-4-{6-[2-(4-methoxy-2-methyl-indol-1-yl)-ethylamino]-pyrimidin-4-yl}-benzoic acid] | 48 nM | 204 nM
COc1ccc(F)c2c1cc(C)n2CCNc1cc(-c2ccc(S(C)(=O)=O)c(F)c2)ncn1 [compound 161] | 396 nM | 993 nM
CCOc1cc(-c2cc(NCCn3c(C)cc4c(C)c(F)cc(F)c43)ncn2)sc1C(=O)O [compound 162, 5-{6-[2-(5,7-Difluoro-2,4-dimethyl-indol-1-yl)-ethylamino]-pyrimidin-4-yl}-3-ethoxy-thiophene-2-carboxylic acid] | 3 nM | 4 nM
CCNc1cc(-c2cc(NCCn3c(C)cc4cccc(C#N)c43)ncn2)ccc1C(=O)O [compound 163] | 111 nM | 842 nM
Cc1ccc(F)c2c1cc(C)n2CCNc1cc(-c2ccc3[nH]cnc3c2)ncn1 [compound 164] | 113 nM | 520 nM
CC(C)Cc1cc(-c2cc(NCCn3c(C#N)cc4ccccc43)ncn2)ccc1C(=O)O [compound 165, 4-{6-[2-(2-Cyano-indol-1-yl)-ethylamino]-pyrimidin-4-yl}-2-isobutyl-benzoic acid] | 19 nM | 230 nM
Cc1ccc(F)c2c1cc(C)n2CCNc1cc(-c2cc(F)c(S(N)(=O)=O)c(F)c2)ncn1 [compound 166] | 131 nM | 733 nM
CCNc1cc(-c2cc(NCCn3c(C)cc4cc(F)cc(F)c43)ncn2)ccc1C(=O)O [compound 167, 4-{6-[2-(5,7-Difluoro-2-methyl-indol-1-yl)-ethylamino]-pyrimidin-4-yl}-2-ethylamino-benzoic acid] | 6 nM | 333 nM
Cc1ccc(F)c2c1cc(C)n2CCNc1cc(-c2ccc(C(=O)NCCO)cc2)ncn1 [compound 168] | 146 nM | 995 nM
Cc1cc2c(Cl)cccc2n1CCNc1cc(-c2ccc(C(=O)O)c(C3CC3)c2)ncn1 [compound 169] | 8 nM | 543 nM
CCNc1cc(-c2cc(NCCn3c(C)cc4ccc(OC)cc43)ncn2)ccc1C(=O)O [compound 170, 2-Ethylamino-4-{6-[2-(6-methoxy-2-methyl-indol-1-yl)-ethylamino]-pyrimidin-4-yl}-benzoic acid] | 1 nM | 350 nM
COc1ccc(F)c2c1cc(C)n2CCNc1cc(-c2ccc(S(N)(=O)=O)c(C)c2)ncn1 [compound 171] | 112 nM | 231 nM
COc1ccc(F)c2c1cc(C)n2CCNc1cc(-c2ccc(S(N)(=O)=O)c(Cl)c2)ncn1 [compound 172] | 54 nM | 536 nM
Cc1cc2c(F)ccc(F)c2n1CCNc1cc(-c2ccc(C(=O)O)c(C3CC3)c2)ncn1 [compound 173, 2-Cyclopropyl-4-{6-[2-(4,7-difluoro-2-methyl-indol-1-yl)-ethylamino]-pyrimidin-4-yl}-benzoic acid] | 5 nM | 894 nM

Structure (SMILES) | IC50 [1] | IC50 [2]
Cc1ccc(F)c2c1cc(C)n2CCNc1cc(-c2ccc(C(=O)O)c(C3CC3)c2)ncn1 [compound 174, 2-Cyclopropyl-4-{6-[2-(7-fluoro-2,4-dimethyl-indol-1-yl)-ethylamino]-pyrimidin-4-yl}-benzoic acid] | 27 nM | 405 nM
COc1cccc2c1cc(C)n2CCNc1cc(-c2ccc(C(=O)O)c(C3CC3)c2)ncn1 [compound 175, 2-Cyclopropyl-4-{6-[2-(4-methoxy-2-methyl-indol-1-yl)-ethylamino]-pyrimidin-4-yl}-benzoic acid] | 6 nM | 529 nM
Cc1cc(F)c(F)c2c1cc(C)n2CCNc1cc(-c2ccc(-c3c[nH]cn3)cc2)ncn1 [compound 176, [2-(6,7-Difluoro-2,4-dimethyl-indol-1-yl)-ethyl]-{6-[4-(1H-imidazol-4-yl)-phenyl]-pyrimidin-4-yl}-amine] | 36 nM | 71 nM
Cc1cc(-c2ccc(-c3cc(NCCn4c(C)cc5c(C)cc(F)cc54)ncn3)cc2)n[nH]1 [compound 178, [2-(6-Fluoro-2,4-dimethyl-indol-1-yl)-ethyl]-{6-[4-(5-methyl-1H-pyrazol-3-yl)-phenyl]-pyrimidin-4-yl}-amine] | 18 nM | 168 nM
COc1cccc2c1cc(C)n2CCNc1cc(-c2ccc(-c3noc(C)n3)cc2)ncn1 [compound 179, [2-(4-Methoxy-2-methyl-indol-1-yl)-ethyl]-{6-[4-(5-methyl-[1,2,4]oxadiazol-3-yl)-phenyl]-pyrimidin-4-yl}-amine] | 20 nM | 880 nM
COc1cccc2c1cc(C)n2CCNc1cc(-c2ccc(-c3cc(N)no3)cc2)ncn1 [compound 180, {6-[4-(3-Amino-isoxazol-5-yl)-phenyl]-pyrimidin-4-yl}-[2-(4-methoxy-2-methyl-indol-1-yl)-ethyl]-amine] | 3 nM | 16 nM
COc1ccc(F)c2c1cc(C)n2CCNc1cc(-c2cnc(N3CCOCC3)s2)ncn1 [compound 181] | 173 nM | 864 nM
Cc1cc(F)cc2c1cc(C)n2CCNc1cc(-c2ccc(-c3noc(=O)[nH]3)cc2)ncn1 [compound 182] | 56 nM | 141 nM
Cc1cc(F)cc2c1cc(C)n2CCNc1cc(-c2ccc3c(C(=O)O)n[nH]c3c2)ncn1 [compound 183, 6-{6-[2-(6-Fluoro-2,4-dimethyl-indol-1-yl)-ethylamino]-pyrimidin-4-yl}-1H-indazole-3-carboxylic acid] | 49 nM | 637 nM
COc1cc(F)cc2c1cc(C)n2CCNc1cc(-c2ccc(-c3ncno3)cc2)ncn1 [compound 184, [2-(6-Fluoro-4-methoxy-2-methyl-indol-1-yl)-ethyl]-[6-(4-[1,2,4]oxadiazol-5-yl-phenyl)-pyrimidin-4-yl]-amine] | 15 nM | 170 nM
Cc1ccc(F)c2c1cc(C)n2CCNc1cc(-c2ccc(-c3noc(=O)[nH]3)cc2)ncn1 [compound 185, 3-(4-{6-[2-(7-Fluoro-2,4-dimethyl-indol-1-yl)-ethylamino]-pyrimidin-4-yl}-phenyl)-4H-[1,2,4]oxadiazol-5-one] | 30 nM | 302 nM
COc1ccc(F)c2c1cc(C)n2CCNc1cc(-c2ccc(-c3ncno3)cc2)ncn1 [compound 186, [2-(7-Fluoro-4-methoxy-2-methyl-indol-1-yl)-ethyl]-[6-(4-[1,2,4]oxadiazol-5-yl-phenyl)-pyrimidin-4-yl]-amine] | 7 nM | 124 nM
Cc1cc(F)c(F)c2c1cc(C)n2CCNc1cc(-c2ccc(-c3ncno3)cc2)ncn1 [compound 187, [2-(6,7-Difluoro-2,4-dimethyl-indol-1-yl)-ethyl]-[6-(4-[1,2,4]oxadiazol-5-yl-phenyl)-pyrimidin-4-yl]-amine] | 20 nM | 198 nM
COc1cc(F)cc2c1cc(C)n2CCNc1cc(-c2ccc(-c3c[nH]cn3)cc2)ncn1 [compound 188, [2-(6-Fluoro-4-methoxy-2-methyl-indol-1-yl)-ethyl]-{6-[4-(1H-imidazol-4-yl)-phenyl]-pyrimidin-4-yl}-amine] | 17 nM | 43 nM
Cc1ccc(F)c2c1cc(C)n2CCNc1cc(-c2ccc(-c3cc(N)no3)cc2)ncn1 [compound 189, {6-[4-(3-Amino-isoxazol-5-yl)-phenyl]-pyrimidin-4-yl}-[2-(7-fluoro-2,4-dimethyl-indol-1-yl)-ethyl]-amine] | 19 nM | 106 nM
COc1ccc(F)c2c1cc(C)n2CCNc1cc(-c2ccc(-n3cccn3)cc2)ncn1 [compound 190] | 53 nM | 193 nM
COc1ccc(F)c2c1cc(C)n2CCNc1cc(-c2ccc(-c3c[nH]cn3)cc2)ncn1 [compound 191, [2-(7-Fluoro-4-methoxy-2-methyl-indol-1-yl)-ethyl]-{6-[4-(1H-imidazol-4-yl)-phenyl]-pyrimidin-4-yl}-amine] | 13 nM | 38 nM
COc1ccc(F)c2c1cc(C)n2CCNc1cc(-c2ccc(-c3ncc[nH]3)cc2)ncn1 [compound 192, [2-(7-Fluoro-4-methoxy-2-methyl-indol-1-yl)-ethyl]-{6-[4-(1H-imidazol-2-yl)-phenyl]-pyrimidin-4-yl}-amine] | 23 nM | 287 nM
